Measured values as given in patent US20250064948A1, “GCPII INHIBITION FOR THE TREATMENT OF SARCOPENIA AND AGING” (The Johns Hopkins University, priority 2022, published 2025).

Key:
aged C57BL6/J mice [1] = experiment: 2-PMPA treatment of aged C57BL6/J mice: muscle function, muscle mass, frailty, survival, plasma cytokines; format: in vivo
Protocol: To determine whether 2-PMPA treatment could delay muscle function loss in aged animals, 15-month old C57BL6/J mice were treated with 100 mg/kg of 2-PMPA IP daily for 5 months and monthly body weight, grip strength, compound muscle action potential (CMAP), open field behavior, end stage muscle weights and survival were monitored.
After 5 months of treatment, 2-PMPA treated animals were moving more in the open field apparatus.

aged C57BL6/J mice [2] = experiment: as above; format: in vivo; conditions: 15-month old WT mice, 100 mg/kg, 5 days per week for 5 months, vs vehicle
[3] = 20 weeks of 2-PMPA treatment, plasma

O=C(O)CCC(CP(=O)(O)O)C(=O)O (stereo not shown) [Compound 2-PMPA, 2-(phosphonomethyl) pentanedioic acid]
calf muscle area measured by MRI (aged C57BL6/J mice [1]; 2 months on treatment, vs vehicle treated mice): significantly greater | gastrocnemius muscle weights (aged C57BL6/J mice [1]; 5 months of treatment, vs vehicle treated mice): significantly increased | survival after 5 months of treatment (aged C57BL6/J mice [1]; 15-month old C57BL6/J mice, 100 mg/kg 2-PMPA IP, 5 months, vehicle 8%): 58% | median survival exceeding the vehicle mice (aged C57BL6/J mice [1]; 15-month old C57BL6/J mice, 100 mg/kg 2-PMPA, vs vehicle): 106 days | plasma IFN-gamma (aged C57BL6/J mice [1]; [3]): reduced | plasma IL-1beta (aged C57BL6/J mice [1]; [3]): reduced | plasma TNF-alpha (aged C57BL6/J mice [1]; [3]): reduced | frailty index scores (aged C57BL6/J mice [1]; after 5 months of treatment, vs vehicle-treated mice): significantly reduced | body weight loss (aged C57BL6/J mice [1]; after 5 months on 2-PMPA therapy, vs vehicle treated mice): significant delay | gastrocnemius muscle fiber cross sectional area (CSA) (aged C57BL6/J mice [1]; old mice treated with 2-PMPA vs vehicle treated old mice): significantly larger | compound muscle action potential (CMAP) in the foot muscles (aged C57BL6/J mice [2]): significantly improved | grip strength (aged C57BL6/J mice [2]): significantly improved | movement in open field (aged C57BL6/J mice [2]): significantly improved
